Results published in US20030104507A1, “Method for detection of ATP” (priority 2001, published 2003).

Tested on: ATPase activity endogenous to L929 cell lysate
Experiment: Detergent inhibition of ATPase endogenous to L929 cell lysate (ATP remaining by luciferase luminescence, 22° C.)
Format: biochemical
Design: key to Relative ATPase Activity, slope det/slope lysate: slope with detergent / slope without; ≥1.0 = 100% activity, 0.5 = 50%
Procedure, shortened: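 L929 lysate (1.5×10^5 cells/ml, four freeze–thaw cycles) held with detergent at final 1.0, 0.5, 0.1 or 0.05% at 22° C; remaining ATP read over time with luciferase-luciferin reagent (100 μM luciferin, 10 mM MgSO4, pH 7.5). Relative ATPase activity = slope of log % ATP remaining vs time with detergent ÷ slope for lysate-only control.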

[1] = Example 2, 0.02% detergent, 5 min
[2] = Example 2, 0.02% detergent, 75 min
[3] = Example 2, 0.02% detergent, 169 min
[4] = Example 2, 0.02% detergent, 222 min
[5] = Example 2, 0.02% detergent, 260 min

C[C@H](CCC(=O)[O-])[C@H]1CC[C@H]2[C@@H]3CC[C@@H]4C[C@H](O)CC[C@]4(C)[C@H]3C[C@H](O)[C@]12C.[Na+] [Deoxycholate, sodium deoxycholate]
Relative ATPase Activity, slope det/slope lysate (0.02 percent detergent): 1.004
Slope (log percent ATP remaining vs time in minutes) (0.02 percent detergent): −0.0064
Average Relative Light Unit Values (0.05% detergent, 5 min): 5810.85 rlu
Percent ATP Remaining (0.05% detergent, 5 min): 100%
Average Relative Light Unit Values (0.05% detergent, 75 min): 1729.95 rlu
Percent ATP Remaining (0.05% detergent, 75 min): 29.8%
Average Relative Light Unit Values (0.05% detergent, 169 min): 738.1 rlu
Percent ATP Remaining (0.05% detergent, 169 min): 12.7%
Average Relative Light Unit Values (0.05% detergent, 222 min): 375.74 rlu
Percent ATP Remaining (0.05% detergent, 222 min): 6.5%
Average Relative Light Unit Values (0.05% detergent, 260 min): 188.59 rlu
Percent ATP Remaining (0.05% detergent, 260 min): 3.2%
Relative ATPase Activity, slope det/slope lysate (0.05 percent detergent): 0.984
Slope (log percent ATP remaining vs time in minutes) (0.05 percent detergent): −0.0055
Average Relative Light Unit Values (0.1% detergent, 5 min): 6422.34 rlu
Percent ATP Remaining (0.1% detergent, 5 min): 100%
Average Relative Light Unit Values (0.1% detergent, 75 min): 3730.44 rlu
Percent ATP Remaining (0.1% detergent, 75 min): 57.9%
Average Relative Light Unit Values (0.1% detergent, 169 min): 1627.81 rlu
Percent ATP Remaining (0.1% detergent, 169 min): 25.3%
Average Relative Light Unit Values (0.1% detergent, 222 min): 1028.42 rlu
Percent ATP Remaining (0.1% detergent, 222 min): 16.0%
Average Relative Light Unit Values (0.1% detergent, 260 min): 669.31 rlu
Percent ATP Remaining (0.1% detergent, 260 min): 10.4%
Relative ATPase Activity, slope det/slope lysate (0.10 percent detergent): 0.684
Slope (log percent ATP remaining vs time in minutes) (0.10 percent detergent): −0.0038
Average Relative Light Unit Values (0.5% detergent, 5 min): 3189.56 rlu
Percent ATP Remaining (0.5% detergent, 5 min): 100%
Average Relative Light Unit Values (0.5% detergent, 75 min): 2715.45 rlu
Percent ATP Remaining (0.5% detergent, 75 min): 85.1%
Average Relative Light Unit Values (0.5% detergent, 169 min): 2268.77 rlu
Percent ATP Remaining (0.5% detergent, 169 min): 71.1%
Average Relative Light Unit Values (0.5% detergent, 222 min): 2105.38 rlu
Percent ATP Remaining (0.5% detergent, 222 min): 66.0%
Average Relative Light Unit Values (0.5% detergent, 260 min): 1845.36 rlu
Percent ATP Remaining (0.5% detergent, 260 min): 57.9%
Relative ATPase Activity, slope det/slope lysate (0.50 percent detergent): 0.158
Slope (log percent ATP remaining vs time in minutes) (0.50 percent detergent): −0.0009
Average Relative Light Unit Values (1.0% detergent, 5 min): 3.98 rlu
Average Relative Light Unit Values (1.0% detergent, 75 min): 3.63 rlu
Average Relative Light Unit Values (1.0% detergent, 169 min): 3.63 rlu
Average Relative Light Unit Values (1.0% detergent, 222 min): 3.15 rlu
Average Relative Light Unit Values (1.0% detergent, 260 min): 3.24 rlu
Average Relative Light Unit Values [1]: 5962.61 rlu
Percent ATP Remaining [1]: 100.00%
Average Relative Light Unit Values [2]: 1694.47 rlu
Percent ATP Remaining [2]: 28.42%
Average Relative Light Unit Values [3]: 368.11 rlu
Percent ATP Remaining [3]: 6.17%
Average Relative Light Unit Values [4]: 241.05 rlu
Percent ATP Remaining [4]: 4.04%
Average Relative Light Unit Values [5]: 135.25 rlu
Percent ATP Remaining [5]: 2.27%
times more ATP present in the sample after four hours when the detergent was present than when it was absent (SDS 0.05%, deoxycholate 0.5% and 0.1%): about three to about twenty
concentrations which resulted in a 25% or greater decrease in the relative ATPase activity (compared to reactions in the absence of detergent): ≥ 0.1%
